Series [1] addresses T1, SERCA2a (Canis lupus familiaris (Dog) (Canis familiaris), UniProt O46674). Kind of series: SERCA2a ATPase activity in SR preparations from failing dog. The series is classed as biochemical. The conditions noted are these: data not shown. The procedure: Male beagle dogs were used for obtaining cardiac tissues for SERCA2a-enriched sarcoplasmic reticulum preparations. Healthy dogs were utilized for obtaining the data in Table 3. Chronic heart failure was induced in dogs by multiple intracoronary microembolizations with polystyrene latex microspheres ([…], Polysciences, Warrington, PA, USA) as described previously (see Sabbah H N et al., Am J Physiol. 1991; 260:H1379-84). The experiments were conducted in the General Pharmacology Department of Sigma-Tau, Rome, Italy. […]
SERCA2a activity was measured in vitro as ^32P-ATP hydrolysis at different Ca2^+ concentrations (100 to 3000 nM) in the absence and presence of the tested compounds as described previously (see Micheletti R. et al., Am J Card 2007; 99:24A-32A). […] The ATP hydrolysis was continued for 15 min at 37° C. and was stopped by acidification with 100 μl of 20% v/v ice-cold perchloric acid. ^32P was separated by centrifugation with activated charcoal (Norit A, SERVA) and the radioactivity was measured. […]
Dose-response curves were fitted by using a sigmoidal curve fitting software and the maximal velocity (Vmax) activity and the Kd Ca2^+ were calculated (Synergy Software KaleidaGraph 3.6). […]

Series [2] addresses T1, SERCA2a. In words: SERCA2a ATPase activity in heart-derived SR microsomes from normal dog. The conditions noted are these: for % increase vs control (Vmax) / Vmax: normal dog SR microsomes; for Vmax: mean ± SD. The series is classed as biochemical. The method, then:
Male beagle dogs were used for obtaining cardiac tissues for SERCA2a-enriched sarcoplasmic reticulum preparations. Healthy dogs were utilized for obtaining the data in Table 3. Chronic heart failure was induced in dogs by multiple intracoronary microembolizations with polystyrene latex microspheres ([…], Polysciences, Warrington, PA, USA) as described previously (see Sabbah H N et al., Am J Physiol. 1991; 260:H1379-84). The experiments were conducted in the General Pharmacology Department of Sigma-Tau, Rome, Italy.
Left ventricle tissues were dissected, homogenized in 4 volumes of 10 mM NaHCO3 (pH 7), 1 mM PMSF, 10 μg/ml Aprotinin and Leupeptin and centrifuged at 12.000 g for 15 minutes, as described in Nediani C. et al. (J Biol Chem. 1996; 271:19066-73). Supernatants were filtered and centrifuged at 100.000 g for 30 min. Contractile proteins were extracted by suspending the pellets with 0.6 M KCl, 30 mM Histidine, pH 7 and further centrifugation at 100.000 g for 30 min. Final pellets were reconstituted with 0.3 M Sucrose, 30 mM Histidine, pH 7.
SERCA2a activity was measured in vitro as ^32P-ATP hydrolysis at different Ca2^+ concentrations (100 to 3000 nM) in the absence and presence of the tested compounds as described previously (see Micheletti R. et al., Am J Card 2007; 99:24A-32A). Increasing concentrations of each compound (from 0.05 to 300 nM) were pre-incubated with 2 μg of microsomes for 5 min at 4° C. in 80 μl of a solution containing 100 mM KCl, 5 mM MgCl2, 1 μM A23187, 20 mM Tris, pH 7.5. Then, 20 μl of 5 mM Tris-ATP containing 50 nCi of ^32P-ATP (3-10 Ci/mmol, Perkin Elmer) was added. The ATP hydrolysis was continued for 15 min at 37° C. and was stopped by acidification with 100 μl of 20% v/v ice-cold perchloric acid. ^32P was separated by centrifugation with activated charcoal (Norit A, SERVA) and the radioactivity was measured. SERCA2a-dependent activity was identified as the portion of total hydrolytic activity inhibited by 10 μM cyclopiazonic acid (see Seidler N W. et al., J Biol Chem. 1989; 264:17816-23).
Dose-response curves were fitted by using a sigmoidal curve fitting software and the maximal velocity (Vmax) activity and the Kd Ca2^+ were calculated (Synergy Software KaleidaGraph 3.6).
The compounds disclosed herein were tested on SERCA2a ATPase activity prepared from normal and failing dogs in a range of concentrations from […]. The effect has been expressed as % increase of the Vmax activity of a control sample run in the absence of compound. Data are mean & SD, where n indicates the number of experiments.

Series [3] can be described thus: Acute toxicity (LD50) in mouse. Type of series: in vivo. Particulars: Albino Swiss CD-1, in vivo, single administration. The procedure: Acute toxicity has been determined in the mouse (Albino Swiss CD-1, body weight 30 g). Mice were orally treated, or intravenously injected, with single administration of increasing doses of the test substance to identify the dose causing 50% mortality. Mortality occurred within 30 min after the administration and survival after 24 h. The acute toxicity (LD50) was then assessed.
The acute toxicity of the tested compound PST 3093 was determined in the mouse (Albino Swiss CD-1, body weight 30 g). Compound PST 3093 was orally administered or intravenously injected at increasing doses to identify the dose causing 50% mortality. Mortality occurred within 30 min after the administration and survival after 24 h.

The nature of series [4]: Plasma levels of istaroxime and its metabolites in patients (HPLC-MS/MS). Type of series: in vivo, human. The conditions noted are these: for plasma concentration course during the infusion period: 24 h infusion of 0.5 or 1 μg/kg/min istaroxime, Caucasian and Chinese patients. The method, then: The quantitative determination of PST 2744 and its metabolite PST 2915 in human plasma was determined by the HPLC-MS/MS method that included a mobile phase of 70:30 acetonitrile/water, 1 mL/L 1M formic acid, and 1 mL/L 5M ammonium acetate. The flow rate was 1 mL/min, and the chromatographic separation was by reversed phase HPLC (Column: SYNERGI 4μ POLAR-RP80A 150×4.6 mm equipped with a Security-guard Phenomenex Polar-RP 4×3 mm). Detection was performed by MS/MS, and the acquisition mode was Multiple Reaction Monitoring (MRM).
The quantitative determination of istaroxime metabolies PST 2922 and PST 3093 in human plasma was also measured by the HPLC-MS/MS method. In this case, the mobile phase was 50:50 H2 O/CH3 CN (v/v) and 500 μL/L 98-100% HCOOH. The flow rate was 1 mL/min and chromatographic separation was done by reversed-phase HPLC (Column: Phenomenex Phenyl hexyl, 150×4.6 mm, equipped with a Phenomenex phenyl propyl guard-cartridge) under isocratic conditions. Detection was performed by MS/MS (376.0→282.0 amu for PST2922, 378.0→284.0 amu for PST 3093 and 362.0→268.0 amu for PST 3418, IS).

A further series deals with dog renal Na,K-ATPase (Canis lupus familiaris (Dog) (Canis familiaris), UniProt P50997). In words: Inhibition of dog renal Na,K-ATPase activity (32P-ATP). Type of series: biochemical. The procedure: Kidneys were sliced and the outer medulla was dissected, pooled and suspended (1 g/10 ml) in a sucrose-histidine solution, containing 250 mM sucrose, 30 mM histidine and 5 mM EDTA, pH 7.2 and homogenized. The homogenate was centrifuged at 6.000 g for 15 min, the supernatant was decanted and centrifuged at 48.000 g for 30 min. The pellet was suspended in the sucrose-histidine buffer and incubated for 20 min with a sodium-dodecyl-sulphate (SDS) solution dissolved in a gradient buffer, containing 25 mM imidazole and 1 mM EDTA, pH 7.5. […] The pellet was suspended in the gradient buffer.
Increasing concentrations of the standard ouabain, or tested compound, were incubated with 0.3 μg of purified dog kidney enzyme for 10 min at 37° C. in 120 μl final volume of a medium containing 140 mM NaCl, 3 mM MgCl2, 50 mM Hepes-Tris, 3 mM ATP at a pH 7.5. Then, 10 μl of incubation solution containing 10 mM KCl and 20 nCi of ^32P-ATP (3-10 Ci/mmol, Perkin Elmer) was added, and the reaction was continued for 15 min at 37° C. The reaction was then stopped by acidification with 20% v/v ice-cold perchloric acid. ^32P was separated by centrifugation with activated Charcoal (Norit A, Serva) and the radioactivity was measured. The inhibitory activity was expressed as percent of the control samples carried out in the absence of ouabain or tested compound.

SMILES strings stand for the structures. Where two headings read alike, the source gives them in different places. Marks after values point to notes of the source that are not given here.

T1 sequence (O46674 whole entry): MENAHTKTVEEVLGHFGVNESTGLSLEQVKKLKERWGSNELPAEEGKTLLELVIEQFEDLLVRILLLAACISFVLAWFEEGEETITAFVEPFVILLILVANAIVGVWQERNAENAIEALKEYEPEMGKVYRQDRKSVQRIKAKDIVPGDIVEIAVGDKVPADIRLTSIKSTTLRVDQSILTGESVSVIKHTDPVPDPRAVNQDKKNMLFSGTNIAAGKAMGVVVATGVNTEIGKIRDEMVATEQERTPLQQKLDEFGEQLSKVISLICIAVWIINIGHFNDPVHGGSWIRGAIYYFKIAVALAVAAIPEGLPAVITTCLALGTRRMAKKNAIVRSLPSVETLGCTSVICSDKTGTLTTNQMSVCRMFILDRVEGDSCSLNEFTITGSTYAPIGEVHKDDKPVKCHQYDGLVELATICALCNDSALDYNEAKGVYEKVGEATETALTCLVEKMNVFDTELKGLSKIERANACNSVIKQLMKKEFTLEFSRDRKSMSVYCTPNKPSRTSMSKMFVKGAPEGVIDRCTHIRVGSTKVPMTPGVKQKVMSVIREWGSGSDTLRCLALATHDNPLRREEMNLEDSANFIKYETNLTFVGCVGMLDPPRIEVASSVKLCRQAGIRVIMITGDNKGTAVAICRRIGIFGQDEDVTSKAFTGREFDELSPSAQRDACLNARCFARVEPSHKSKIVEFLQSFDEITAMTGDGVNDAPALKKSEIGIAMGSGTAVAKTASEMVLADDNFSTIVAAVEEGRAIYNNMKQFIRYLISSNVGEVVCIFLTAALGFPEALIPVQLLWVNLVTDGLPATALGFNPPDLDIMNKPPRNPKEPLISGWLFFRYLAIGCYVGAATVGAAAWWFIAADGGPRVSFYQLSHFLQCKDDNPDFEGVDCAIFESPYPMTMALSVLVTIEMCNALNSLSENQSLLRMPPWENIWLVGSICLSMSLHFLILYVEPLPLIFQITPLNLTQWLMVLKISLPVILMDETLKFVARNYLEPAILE

Take `C[C@]12CCC(=NOCCN)C[C@@H]1C(=O)C[C@@H]1[C@@H]2CC[C@]2(C)C(=O)CC[C@@H]12` [Istaroxime, (3Z,5a)-3-[(2-aminoethoxy)imino]androstane-6,17-dione]: the SERCA2a activation result on SERCA2a [1] is “particularly evident”. For the same compound, the “% increase vs control (Vmax)” value at SERCA2a [2] (0.1 nM compound) was 14* %; on SERCA2a [2] (10 nM compound), 20** %. The Vmax on SERCA2a [2] (0.1 nM compound) is recorded as 1.423 ± 0.123 μmol/min/mg prot; on SERCA2a [2] (10 nM compound), 1.505 ± 0.111 μmol/min/mg prot. For the same compound, the SERCA2a activity stimulation entry on SERCA2a [2] (normal dog SR vesicles, 0.1 nM and 10 nM) is “significantly stimulated”. The LD50 (in general, the dose expected to kill half of the subjects tested) at 24 h in series [3] (iv) was 29 to 32 mg/kg; in series [3] (os (oral)) it was 200 mg/kg. In addition, in series [4], the “plasma concentration course during the infusion period” value is given as “remain relatively constant”. In series [4] (at 48 hours), the plasma levels result is reported as “not detectable”. In addition, in series [4] (following time points, whole duration of the infusion), the plasmatic level result was “about 8 ng/ml”. Further, the concentration at 3 h in series [4] (human, plasma, intravenous, at 3 hour time point of infusion, read-out: plasmatic level) is around 10 ng/mL. Further, the IC50 (as a rule, the concentration needed to halve the response being measured) at dog renal Na,K-ATPase (purified dog kidney enzyme, 37° C., read-out: IC50, inhibition of dog renal Na,K-ATPase) worked out at 140 nM.
With `C[C@]12CCC(=NOCC(=O)O)CC1[C@H](O)CC1C2CC[C@]2(C)C(=O)CCC12` (stereo partly drawn) [PST 3093, (E,Z)-[(6-beta-hydroxy-17-oxoandrostan-3-ylidene)amino]oxyacetic acid], the “% increase vs control (Vmax)” value at SERCA2a [2] (0.1 nM compound) was 25** %; at SERCA2a [2] (10 nM compound), 19** %. In addition, the 50% lethal dose (LD50) at 24 h in series [3] (iv) was above 250 mg/kg; in series [3] (os (oral)) it was above 200 mg/kg. Further, in series [4], the “plasma concentration course during the infusion period” value was “continue to accumulate”. Besides, the average plasma level entry was “about 21.2 ng/ml” in series [4] (at 48 hours, 1 μg/kg/min istaroxime infusion); “about 25.02 ng/ml” in series [4] (at 48 hours, Caucasian patients, 0.5 μg/kg/min istaroxime infusion); “about 12.5 ng/ml” in series [4] (at 48 hours, Chinese patients, 0.5 μg/kg/min istaroxime infusion). For the same compound, the average plasma concentration result in series [4] (at 70 hours, or 46 hours post-infusion) is “exceeding 10 ng/mL”; in series [4] (by the end of the 24 h istaroxime infusion period (0.5 or 1 μg/kg/min)), “exceeding 60 ng/mL”. The compound further came in with an IC50 on dog renal Na,K-ATPase above 100000 nM.

Values taken from patent US12343350B2, “Istaroxime-containing intravenous formulation for the treatment of acute heart failure (AHF)” (Windtree Therapeutics, Inc., priority 2019, dated 2025).
